In PubChem BioAssay (NCI):
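At the GI50, growth is halved. TGI denotes the concentration required for complete inhibition of growth.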

How the values were obtained:
Experiment in all cases: NCI anticancer screen, dose series, 384-well format
[1] = tested on: SK-MEL-28 melanoma
[2] = tested on: RXF 393 renal
[3] = tested on: K-562 leukemia
[4] = tested on: A498 renal
[5] = tested on: MDA-MB-468 breast
[6] = tested on: SN12C renal
[7] = tested on: HOP-62 NSCLC
[8] = tested on: NCI-H226 lung
[9] = tested on: NCI-H322M lung
[10] = tested on: T-47D breast
[11] = tested on: NCI/ADR-RES ovarian
[12] = tested on: OVCAR-3 ovarian
[13] = tested on: OVCAR-4 ovarian
[14] = tested on: NCI-H460 NSCLC
[15] = tested on: U251 glioblastoma
[16] = tested on: ACHN renal
[17] = tested on: SF-539 CNS
[18] = tested on: SK-MEL-5 melanoma
[19] = tested on: UO-31 renal
[20] = tested on: RPMI-8226 leukemia
[21] = tested on: 786-0 renal
[22] = tested on: LOX IMVI melanoma
[23] = tested on: MDA-MB-435 melanoma
[24] = tested on: SNB-75 CNS
[25] = tested on: SW-620 colon
[26] = tested on: KM12 colon
[27] = tested on: HL-60(TB) leukemia
[28] = tested on: NCI-H522 lung
[29] = tested on: MALME-3M melanoma
[30] = tested on: MOLT-4 leukemia
[31] = tested on: M14 melanoma
[32] = tested on: HCC-2998 colon
[33] = tested on: UACC-257 melanoma
[34] = tested on: OVCAR-5 ovarian
[35] = tested on: EKVX NSCLC
[36] = tested on: SF-295 CNS
[37] = tested on: PC-3 prostate
[38] = tested on: MCF7 breast
[39] = tested on: IGROV1 ovarian
[40] = tested on: CCRF-CEM leukemia
[41] = tested on: HT29 colon
[42] = tested on: A549 NSCLC
[43] = tested on: COLO 205 colon
[44] = tested on: HCT-15 colon
[45] = tested on: HCT-116 colon
[46] = tested on: HS 578T breast
[47] = tested on: CAKI-1 renal
[48] = tested on: SR leukemia
[49] = tested on: SNB-19 CNS
[50] = tested on: SF-268 CNS
[51] = tested on: MDA-MB-231 breast
[52] = tested on: DU-145 prostate
[53] = tested on: OVCAR-8 ovarian
[54] = tested on: NCI-H23 lung
[55] = tested on: SK-OV-3 ovarian
[56] = tested on: HOP-92 NSCLC
[57] = tested on: TK-10 renal
[58] = tested on: BT-549 breast
[59] = tested on: UACC-62 melanoma

SMILES: Cc1noc(C)c1-c1ccc2[nH]c(=O)n3c2c1OC[C@@H]3c1ccccn1
- GI50 [1]: 0.813 µM
- TGI [1]: > 100 µM
- GI50 [2]: 0.483 µM
- TGI [2]: 11 µM
- GI50 [3]: 0.436 µM
- TGI [3]: > 100 µM
- GI50 [4]: 0.42 µM
- TGI [4]: > 100 µM
- GI50 [5]: 0.241 µM
- TGI [5]: 8.12 µM
- GI50 [6]: 3.69 µM
- TGI [6]: > 100 µM
- GI50 [7]: 0.304 µM
- TGI [7]: 62.2 µM
- GI50 [8]: 1.43 µM
- TGI [8]: > 100 µM
- GI50 [9]: 0.591 µM
- TGI [9]: > 100 µM
- GI50 [10]: 0.318 µM
- TGI [10]: 47.8 µM
- GI50 [11]: 0.653 µM
- TGI [11]: 18.5 µM
- GI50 [12]: 0.227 µM
- TGI [12]: > 100 µM
- GI50 [13]: 0.107 µM
- TGI [13]: 0.495 µM
- GI50 [14]: 2.19 µM
- TGI [14]: > 100 µM
- GI50 [15]: 2.56 µM
- TGI [15]: > 100 µM
- GI50 [16]: 1.22 µM
- TGI [16]: > 100 µM
- GI50 [17]: 0.449 µM
- TGI [17]: 8.79 µM
- GI50 [18]: 0.198 µM
- TGI [18]: 9.84 µM
- GI50 [19]: 0.722 µM
- TGI [19]: > 100 µM
- GI50 [20]: 0.133 µM
- TGI [20]: 0.533 µM
- GI50 [21]: 0.749 µM
- TGI [21]: > 100 µM
- GI50 [22]: 0.277 µM
- TGI [22]: 1.04 µM
- GI50 [23]: 13.7 µM
- TGI [23]: > 100 µM
- GI50 [24]: 1.27 µM
- TGI [24]: > 100 µM
- GI50 [25]: > 100 µM
- TGI [25]: > 100 µM
- GI50 [26]: 1.36 µM
- TGI [26]: > 100 µM
- GI50 [27]: 0.0556 µM
- TGI [27]: 0.17 µM
- GI50 [28]: 0.0766 µM
- TGI [28]: 4.8 µM
- GI50 [29]: 0.398 µM
- TGI [29]: 32.3 µM
- GI50 [30]: 0.421 µM
- TGI [30]: 11.9 µM
- GI50 [31]: 0.72 µM
- TGI [31]: > 100 µM
- GI50 [32]: 0.127 µM
- TGI [32]: 2.11 µM
- GI50 [33]: 0.925 µM
- TGI [33]: > 100 µM
- GI50 [34]: 0.529 µM
- TGI [34]: > 100 µM
- GI50 [35]: > 100 µM
- TGI [35]: > 100 µM
- GI50 [36]: 0.144 µM
- TGI [36]: 41.8 µM
- GI50 [37]: 0.245 µM
- TGI [37]: > 100 µM
- GI50 [38]: 0.125 µM
- TGI [38]: > 100 µM
- GI50 [39]: 0.532 µM
- TGI [39]: 53 µM
- GI50 [40]: 0.584 µM
- TGI [40]: > 100 µM
- GI50 [41]: 0.371 µM
- TGI [41]: > 100 µM
- GI50 [42]: 0.656 µM
- TGI [42]: > 100 µM
- GI50 [43]: 0.527 µM
- TGI [43]: > 100 µM
- GI50 [44]: 0.24 µM
- TGI [44]: 12 µM
- GI50 [45]: 0.501 µM
- TGI [45]: > 100 µM
- GI50 [46]: 0.152 µM
- TGI [46]: 1.6 µM
- GI50 [47]: 0.243 µM
- TGI [47]: > 100 µM
- GI50 [48]: 0.0523 µM
- TGI [48]: 2.04 µM
- GI50 [49]: 1.87 µM
- TGI [49]: > 100 µM
- GI50 [50]: 3.01 µM
- TGI [50]: > 100 µM
- GI50 [51]: 0.605 µM
- TGI [51]: > 100 µM
- GI50 [52]: 14.2 µM
- TGI [52]: > 100 µM
- GI50 [53]: 0.473 µM
- TGI [53]: > 100 µM
- GI50 [54]: 0.483 µM
- TGI [54]: > 100 µM
- GI50 [55]: 0.244 µM
- TGI [55]: 21.3 µM
- GI50 [56]: 0.241 µM
- TGI [56]: > 100 µM
- GI50 [57]: 0.265 µM
- TGI [57]: 23.1 µM
- GI50 [58]: 0.293 µM
- TGI [58]: 25.2 µM

SMILES: C=CC(=O)N1CCN(c2ncnc3c(F)c(-c4c(O)cccc4F)c(Cl)cc23)CC1
- GI50 [1]: 3.17 µM
- TGI [1]: 13.7 µM
- GI50 [2]: 1.91 µM
- TGI [2]: 4.03 µM
- GI50 [3]: 5.53 µM
- TGI [3]: 18.1 µM
- GI50 [4]: 2.05 µM
- TGI [4]: 6.37 µM
- GI50 [5]: 2.34 µM
- TGI [5]: 4.63 µM
- GI50 [6]: 4.48 µM
- TGI [6]: 15.4 µM
- GI50 [7]: 1.21 µM
- TGI [7]: 4.8 µM
- GI50 [8]: 2.39 µM
- TGI [8]: 7.65 µM
- GI50 [9]: 3.22 µM
- TGI [9]: 10.3 µM
- GI50 [10]: 6.31 µM
- TGI [10]: 18.4 µM
- GI50 [11]: 14 µM
- TGI [11]: 28.3 µM
- GI50 [12]: 1.83 µM
- TGI [12]: 3.9 µM
- GI50 [13]: 5.97 µM
- TGI [13]: 18.2 µM
- GI50 [14]: 2.78 µM
- TGI [14]: 7.79 µM
- GI50 [16]: 2.27 µM
- TGI [16]: 5.89 µM
- GI50 [17]: 2.4 µM
- TGI [17]: 5.02 µM
- GI50 [18]: 2.39 µM
- TGI [18]: 5.66 µM
- GI50 [19]: 3.58 µM
- TGI [19]: 12.5 µM
- GI50 [20]: 1.6 µM
- TGI [20]: 3 µM
- GI50 [21]: 3.34 µM
- TGI [21]: 12.4 µM
- GI50 [22]: 2.08 µM
- TGI [22]: 5.21 µM
- GI50 [23]: 3.91 µM
- TGI [23]: 13.9 µM
- GI50 [24]: 3.41 µM
- TGI [24]: 16.7 µM
- GI50 [25]: 3.78 µM
- TGI [25]: 11.3 µM
- GI50 [26]: 2.92 µM
- TGI [26]: 9.85 µM
- GI50 [27]: 1.68 µM
- TGI [27]: 3.08 µM
- GI50 [28]: 3.1 µM
- TGI [28]: 8.43 µM
- GI50 [29]: 3.58 µM
- TGI [29]: 9.59 µM
- GI50 [30]: 2.08 µM
- TGI [30]: 3.62 µM
- GI50 [31]: 1.98 µM
- TGI [31]: 4.68 µM
- GI50 [32]: 2.27 µM
- TGI [32]: 4.32 µM
- GI50 [33]: 3.65 µM
- TGI [33]: 9.18 µM
- GI50 [34]: 3.66 µM
- TGI [34]: 11.9 µM
- GI50 [35]: 5.74 µM
- TGI [35]: 18 µM
- GI50 [36]: 2.97 µM
- TGI [36]: 8.83 µM
- GI50 [37]: 2.64 µM
- TGI [37]: 8.13 µM
- GI50 [38]: 2.95 µM
- TGI [38]: 9.01 µM
- GI50 [39]: 3.5 µM
- TGI [39]: 11.8 µM
- GI50 [40]: 1.83 µM
- TGI [40]: 3.34 µM
- GI50 [41]: 2.97 µM
- TGI [41]: 8.72 µM
- GI50 [42]: 2.36 µM
- TGI [42]: 5.74 µM
- GI50 [43]: 2.33 µM
- TGI [43]: 5.19 µM
- GI50 [44]: 2.5 µM
- TGI [44]: 6.08 µM
- GI50 [46]: 1.71 µM
- TGI [46]: 3.87 µM
- GI50 [47]: 3.07 µM
- TGI [47]: 12.9 µM
- GI50 [48]: 1 µM
- TGI [48]: 2.18 µM
- GI50 [49]: 4.08 µM
- TGI [49]: 14.9 µM
- GI50 [50]: 2.09 µM
- TGI [50]: 5.38 µM
- GI50 [51]: 5.17 µM
- TGI [51]: 18.5 µM
- GI50 [52]: 3.5 µM
- TGI [52]: 12.5 µM
- GI50 [53]: 2.46 µM
- TGI [53]: 6.4 µM
- GI50 [54]: 0.0694 µM
- TGI [54]: 0.94 µM
- GI50 [55]: 4.14 µM
- TGI [55]: 16.1 µM
- GI50 [56]: 4.73 µM
- TGI [56]: 16.8 µM
- GI50 [57]: 8.84 µM
- TGI [57]: 30.7 µM
- GI50 [58]: 1.73 µM
- TGI [58]: 4.14 µM
- GI50 [59]: 1.59 µM
- TGI [59]: 4.76 µM
